Experimental data: patent US9273075B2, “Prodrugs of 1,4-benzodiazepinone compounds” (BRISTOL-MYERS SQUIBB COMPANY, priority 2012, dated 2016)
Values after ≈ are worked out from the molar mass of the structure shown. Like-named read-outs stand apart in the source and are kept apart here.

How the values were obtained:
Solution Stability Assay = type: physicochemical
Experimental: Acetonitrile Stock Solution: Acetonitrile Stock Solution of the prodrug was prepared by dissolving 1.5-2.0 mg of weighted compound in 5.0 mL of acetonitrile in a 5 mL volumetric flask.
pH 6.5 Buffer Working Solution: A pH 6.5 Buffer Working Solution of drug was prepared by adding 1.5 mL of the Acetonitrile Stock Solution to 3.5 mL of stability buffer (50 mM potassium phosphate, pH 6.5) in a 10 mL vial, and mixing. Using a 3 mL syringe, ˜3 mL of solution was withdrawn and filtered using the Gelman 0.45 μm syringe filter into a clean 1.5 mL LC vial. This filtered solution will was used to evaluate the prodrug degradation throughout the course of the study. Target concentration: 90-120 μg/mL (70% Aqueous: 30% Acetonitrile)
pH 4.0 Acidic Working Solution: A pH 4.0 Working Solution of drug was prepared by adding 1.5 mL of the Acetonitrile Stock Solution to 3.5 mL of stability buffer (50 mM sodium acetate, pH 4.0) in a 10 mL vial and mixing. Using a 3 mL syringe, ˜3 mL of solution was withdrawn and filtered using the Gelman 0.45 μm syringe filter into a clean 1.5 mL LC vial. This filtered solution was used to evaluate the prodrug degradation throughout the course of the study. Target concentration: 90-120 μg/mL (70% Aqueous: 30% Acetonitrile)
Experimental Methods: Following the sample preparation procedure described above a single sample (n=1) was prepared for each pH condition. The samples were then placed in an HPLC autosampler maintained at 37° C. and samples were analyzed over a 24 h period. Prodrug remaining (%) was reported relative to the initial peak area (t=0 h). In cases where a conversion to parent half-life could be calculated, a t1/2 was generated. Confirmation of the conversion to parent from the prodrug was obtained by LCMS and HPLC analysis of the final timepoint samples.
Typical LC parameters are shown below: • HPLC System: HP1100 Series, Hewlett Packard., Heated autosampler • Analytical column: Synergi 4 u Hydro C18, 4.6 mm×5.0 cm, PHENOMENEX® • Column temperature: 40° C. • Autosampler temp: 37° C. • Flow rate: 1.0 mL/min • Injection Volume: 10 μL • Mobile Phase: A: Acetonitrile • B: 0.1% Phosphoric acid in water • Run Time: 14.0 minutes Typical LCMS parameters are shown below: • LC-MS System: Surveyor HPLC system, ThermoFinnigan LCQ Deca XP Max (Ion trap) • Analytical column: Synergi 4 u Hydro C18, 4.6 mm×5.0 cm, PHENOMENEX® • Column temperature: 40° C. • Autosampler temp: 22° C. • Flow rate: 1.0 mL/min • Injection Volume: 5 μL • Mobile Phase: A: 95% Acetonitrile/5% 20 mM Ammonium Acetate • B: 5% Acetonitrile/95% 20 mM Ammonium Acetate LCQ Parameters: • Sheath Flow Rate: 81.64 • Aux/Sweep Flow Rate: 19.01 • Current (uA): 10.89 • Voltage (kV): 5.00 • Capillary (C): 348.10 • Capillary Voltage (V): 30.44

[1] = Thermodynamic Equilibrium Aqueous Solubility Assay; type: physicochemical; settings: thermodynamic from solid
Experimental: Standards Preparation: The calibration standard was prepared by accurately weighing 0.5-0.7 mg of sample in 5 ml of methanol. If the material was not fully soluble in methanol, other solvents such as DMSO or mixed solvents were used.
Test Sample Preparation: An excess amount of powder prodrug was equilibrated with 1 mL of buffer (50 mM potassium phosphate, pH 6.5 and 50 mM sodium acetate, pH 4.0) in a 2 mL glass vial. The solution was sonicated and vortexed for ˜30 seconds. The vials were shaken at 300 rpm at room temperature for 24 hrs. The exact incubation time for a specific prodrug was based on the prior aqueous stability data. If the compound was stable in the buffer up to 24 hrs, then the solubility was measured after 24 hrs, otherwise kinetic solubility data was reported. The final saturated solution was then transferred to a 1.5 mL Eppendorf tube and centrifuged for ˜2 min. at 10000 rpms. The supernatant from the saturated solution was transferred to a glass HPLC vial and the solubility was analyzed by HPLC using a four point calibration curve.

[2] = potassium phosphate buffer with 30% acetonitrile, pH 6.5, read-out: Stability (t1/2, h) pH 6.5 (converted)
[3] = sodium acetate buffer with 30% acetonitrile, pH 4, read-out: Stability (t1/2, h) pH 4.0 (converted)
[4] = potassium phosphate buffer, pH 6.5, aqueous buffer, read-out: Solubility (mg/mL) pH 6.5
[5] = sodium acetate buffer, pH 4, aqueous buffer, read-out: Solubility (mg/mL) pH 4.0

With `NC(=O)[C@@H](CCC(F)(F)F)[C@@H](CCC(F)(F)F)C(=O)N[C@H]1N=C(c2ccccc2)c2ccccc2N(COC(=O)Cc2ccc(OP(=O)(O)O)cc2)C1=O` [Example 1, ((3S)-3-(((2R,3S)-3-Carbamoyl-6,6,6-trifluoro-2-(3,3,3-trifluoropropyl)hexanoyl)amino)-2-oxo-5-phenyl-2,3-dihydro-1H-1,4-benzodiazepin-1-yl)methyl (4-(phosphonooxy)phenyl)acetate] the half-life (Solution Stability Assay; [2]) was > 500 h, the half-life (Solution Stability Assay; [3]) was > 500 h and the solubility at 24 h [1, 4] was > 1.22 mg/mL. For the same compound, the solubility at 24 h [1, 5] was 0.01 mg/mL (≈ 12.7 µM).
With `NC(=O)[C@@H](CCC(F)(F)F)[C@@H](CCC(F)(F)F)C(=O)N[C@H]1N=C(c2ccccc2)c2ccccc2N(COC(=O)c2ccc(COP(=O)(O)O)cc2)C1=O` [Example 2, ((3S)-3-(((2R,3S)-3-Carbamoyl-6,6,6-trifluoro-2-(3,3,3-trifluoropropyl)hexanoyl)amino)-2-oxo-5-phenyl-2,3-dihydro-1H-1,4-benzodiazepin-1-yl)methyl 4-((phosphonooxy)methyl)benzoate] the half-life (Solution Stability Assay; [2]) was > 500 h, the half-life (Solution Stability Assay; [3]) was > 500 h and the solubility at 24 h [1, 4] was 0.42 mg/mL (≈ 534 µM). For the same compound, the solubility at 24 h [1, 5] was 0.99 mg/mL (≈ 1260 µM).
With `Cc1cc(C)c(C(C)(C)CC(=O)OCN2C(=O)[C@@H](NC(=O)[C@H](CCC(F)(F)F)[C@H](CCC(F)(F)F)C(N)=O)N=C(c3ccccc3)c3ccccc32)c(OP(=O)(O)O)c1` [Example 3, (3-(((2R,3S)-3-Carbamoyl-6,6,6-trifluoro-2-(3,3,3-trifluoropropyl)hexanoyl)amino)-2-oxo-5-phenyl-2,3-dihydro-1H-1,4-benzodiazepin-1-yl)methyl 3-(2,4-dimethyl-6-(phosphonooxy)phenyl)-3-methylbutanoate] the half-life (Solution Stability Assay; [2]) was > 500 h, the half-life (Solution Stability Assay; [3]) was > 500 h and the solubility at 24 h [1, 4] was > 0.52 mg/mL. For the same compound, the solubility at 24 h [1, 5] was > 0.28 mg/mL.
With `CC(C)(N)C(=O)OCN1C(=O)[C@@H](NC(=O)[C@H](CCC(F)(F)F)[C@H](CCC(F)(F)F)C(N)=O)N=C(c2ccccc2)c2ccccc21` [Example 4, ((3S)-3-(((2R,3S)-3-Carbamoyl-6,6,6-trifluoro-2-(3,3,3-trifluoropropyl)hexanoyl)amino)-2-oxo-5-phenyl-2,3-dihydro-1H-1,4-benzodiazepin-1-yl)methyl 2-methylalaninate] the half-life (Solution Stability Assay; [2]) was 8 h, the half-life (Solution Stability Assay; [3]) was 64 h and the solubility at 24 h [1, 4] was > 1.07 mg/mL. For the same compound, the solubility at 24 h [1, 5] was > 3.23 mg/mL.
In the case of `C[C@H](N)C(=O)OCN1C(=O)[C@@H](NC(=O)[C@H](CCC(F)(F)F)[C@H](CCC(F)(F)F)C(N)=O)N=C(c2ccccc2)c2ccccc21` [Example 5, ((3S)-3-(((2R,3S)-3-Carbamoyl-6,6,6-trifluoro-2-(3,3,3-trifluoropropyl)hexanoyl)amino)-2-oxo-5-phenyl-2,3-dihydro-1H-1,4-benzodiazepin-1-yl)methyl L-alaninate], the half-life (Solution Stability Assay; [2]) is reported as 5 h, the half-life (Solution Stability Assay; [3]) is reported as 92 h and the solubility at 24 h [1, 4] is reported as 3.2 mg/mL (≈ 4970 µM). It also gave a solubility at 24 h [1, 5] of 2.3 mg/mL (≈ 3570 µM).
In the case of `CC(C)[C@H](N)C(=O)OCN1C(=O)[C@@H](NC(=O)[C@H](CCC(F)(F)F)[C@H](CCC(F)(F)F)C(N)=O)N=C(c2ccccc2)c2ccccc21` [Example 6, ((3S)-3-(((2R,3S)-3-Carbamoyl-6,6,6-trifluoro-2-(3,3,3-trifluoropropyl)hexanoyl)amino)-2-oxo-5-phenyl-2,3-dihydro-1H-1,4-benzodiazepin-1-yl)methyl L-valinate], the half-life (Solution Stability Assay; [2]) is reported as 41 h, the half-life (Solution Stability Assay; [3]) is reported as > 500 h and the solubility at 24 h [1, 4] is reported as 0.5 mg/mL (≈ 744 µM). It also gave a solubility at 24 h [1, 5] of 0.3 mg/mL (≈ 447 µM).
With `NC(=O)[C@@H](CCC(F)(F)F)[C@@H](CCC(F)(F)F)C(=O)N[C@H]1N=C(c2ccccc2)c2ccccc2N(COC(=O)C2(N)CC2)C1=O` [Example 7, ((3S)-3-(((2R,3S)-3-Carbamoyl-6,6,6-trifluoro-2-(3,3,3-trifluoropropyl)hexanoyl)amino)-2-oxo-5-phenyl-2,3-dihydro-1H-1,4-benzodiazepin-1-yl)methyl 1-aminocyclopropanecarboxylate] the half-life (Solution Stability Assay; [2]) was > 500 h, the half-life (Solution Stability Assay; [3]) was > 500 h and the solubility at 24 h [1, 4] was 2.09 mg/mL (≈ 3190 µM). The solubility at 24 h [1, 5] was 1.78 mg/mL (≈ 2720 µM).
In the case of `NCCSNC(=O)[C@@H](CCC(F)(F)F)[C@@H](CCC(F)(F)F)C(=O)N[C@H]1N=C(c2ccccc2)c2ccccc2NC1=O` [Example 8, (2S,3R)—N-((2-Aminoethyl)sulfanyl)-N′-((3S)-2-oxo-5-phenyl-2,3-dihydro-1H-1,4-benzodiazepin-3-yl)-2,3-bis(3,3,3-trifluoropropyl)succinamide], the half-life (Solution Stability Assay; [2]) is reported as 334 h, the half-life (Solution Stability Assay; [3]) is reported as > 500 h and the solubility at 24 h [1, 4] is reported as > 0.47 mg/mL. It also gave a solubility at 24 h [1, 5] of 0.52 mg/mL (≈ 842 µM).
In the case of `N[C@@H](CSNC(=O)[C@@H](CCC(F)(F)F)[C@@H](CCC(F)(F)F)C(=O)N[C@H]1N=C(c2ccccc2)c2ccccc2NC1=O)C(=O)O` [Example 9, S-(((2S,3R)-6,6,6-Trifluoro-3-(((3S)-2-oxo-5-phenyl-2,3-dihydro-1H-1,4-benzodiazepin-3-yl)carbamoyl)-2-(3,3,3-trifluoropropyl)hexanoyl)amino)-L-cysteine], the half-life (Solution Stability Assay; [2]) is reported as 58 h, the half-life (Solution Stability Assay; [3]) is reported as 335 h and the solubility at 24 h [1, 4] is reported as 0.64 mg/mL (≈ 967 µM). It also gave a solubility at 24 h [1, 5] of 0.75 mg/mL (≈ 1130 µM).
With `CC(C)CNCNC(=O)[C@@H](CCC(F)(F)F)[C@@H](CCC(F)(F)F)C(=O)N[C@H]1N=C(c2ccccc2)c2ccccc2N(C)C1=O` [Example 10, (2S,3R)—N-((Isobutylamino)methyl)-N′-((3S)-1-methyl-2-oxo-5-phenyl-2,3-dihydro-1H-1,4-benzodiazepin-3-yl)-2,3-bis(3,3,3-trifluoropropyl)succinamide] the half-life (Solution Stability Assay; [2]) was 32 h, the solubility at 24 h [1, 4] was < 0.001 mg/mL and the solubility at 24 h [1, 5] was > 0.27 mg/mL.
For `CN1C(=O)[C@@H](NC(=O)[C@H](CCC(F)(F)F)[C@H](CCC(F)(F)F)C(=O)NSCCN)N=C(c2ccccc2)c2ccccc21` [Example 11, (2S,3R)—N-((2-Aminoethyl)sulfanyl)-N′-((3S)-1-methyl-2-oxo-5-phenyl-2,3-dihydro-1H-1,4-benzodiazepin-3-yl)-2,3-bis(3,3,3-trifluoropropyl)succinamide], the half-life (Solution Stability Assay; [2]) was 29 h, the half-life (Solution Stability Assay; [3]) was 215 h and the solubility at 24 h [1, 4] was > 3.4 mg/mL. For the same compound, the solubility at 24 h [1, 5] was > 2.67 mg/mL.
In the case of `CN(C)CCSNC(=O)[C@@H](CCC(F)(F)F)[C@@H](CCC(F)(F)F)C(=O)N[C@H]1N=C(c2ccccc2)c2ccccc2N(C)C1=O` [Example 13, (2S,3R)—N-((2-(Dimethylamino)ethyl)sulfanyl)-N′-((3S)-1-methyl-2-oxo-5-phenyl-2,3-dihydro-1H-1,4-benzodiazepin-3-yl)-2,3-bis(3,3,3-trifluoropropyl)succinamide], the half-life (Solution Stability Assay; [2]) is reported as 108 h, the half-life (Solution Stability Assay; [3]) is reported as 334 h and the solubility at 24 h [1, 4] is reported as 0.94 mg/mL (≈ 1420 µM). The solubility at 24 h [1, 5] was > 0.92 mg/mL.
Work on `COC(=O)[C@@H](N)CSNC(=O)[C@@H](CCC(F)(F)F)[C@@H](CCC(F)(F)F)C(=O)N[C@H]1N=C(c2ccccc2)c2ccccc2N(C)C1=O` [Example 14, Methyl S-(((2S,3R)-6,6,6-trifluoro-3-(((3S)-1-methyl-2-oxo-5-phenyl-2,3-dihydro-1H-1,4-benzodiazepin-3-yl)carbamoyl)-2-(3,3,3-trifluoropropyl)hexanoyl)amino)-L-cysteinate] yielded a half-life (Solution Stability Assay; [2]) of 44 h, a half-life (Solution Stability Assay; [3]) of 73 h and a solubility at 24 h [1, 4] of 0.02 mg/mL (≈ 29 µM). The solubility at 24 h [1, 5] was 0.42 mg/mL (≈ 609 µM).
